How the values were obtained:
CCK-B receptor = target: T1, CCK-B receptor (Cavia porcellus, UniProt H0VZC5); assay: CCK-receptor binding, CCK-B (guinea pig cortex assay); details: read-out: pKi CCK-B (converted)
T1 construct: CCK-B receptor (guinea pig cortex assay); from tissue; host or cells: guinea pig cortex
T1 sequence (H0VZC5 1-426): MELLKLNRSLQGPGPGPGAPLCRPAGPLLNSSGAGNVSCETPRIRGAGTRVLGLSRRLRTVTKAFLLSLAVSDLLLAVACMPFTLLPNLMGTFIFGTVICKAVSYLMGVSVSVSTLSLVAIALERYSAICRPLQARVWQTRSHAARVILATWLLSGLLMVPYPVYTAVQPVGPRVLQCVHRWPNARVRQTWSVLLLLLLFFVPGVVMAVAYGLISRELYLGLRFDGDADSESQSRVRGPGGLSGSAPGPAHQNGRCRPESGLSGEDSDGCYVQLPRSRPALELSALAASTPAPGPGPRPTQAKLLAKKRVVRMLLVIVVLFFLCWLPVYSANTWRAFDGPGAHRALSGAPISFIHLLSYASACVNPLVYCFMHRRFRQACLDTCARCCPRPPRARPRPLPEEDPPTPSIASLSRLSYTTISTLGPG
Protocol: (§1) The greater affinity of the compounds of the invention for the CCK-B receptor over the CCK-A receptor has also been established using the CCK receptor binding assays described by G Dal Forno et al., J. Pharmcol. Exp & Ther. 261, 1056-1063, 1992.
(§2) The binding affinity of the compounds of the invention for the CCK-A receptor (Pancreas Assay) and CCK-B receptor (guinea pig cortex assay) was determined using the procedure of G Dal Forno et al J. Pharmacol. Exp & Ther. 261--1056-1063. The pKi values determined with respresentative compounds of invention were as follows: […]

CCK-A receptor = assay: CCK-receptor binding, CCK-A (Pancreas Assay)
Protocol: as §1, §2

Compound | Ki (CCK-B receptor) [nM] | pKi CCK-A (CCK-A receptor)
CCOC(=O)CCCOc1ccc(NC(=O)NC2C(=O)N(CC34CC5CC(CC(C5)C3)C4)c3ccccc3N(c3ccccc3)C2=O)cc1 (single isomer, unassigned; (+)) [Example 2, (+)N-[1-(1-Adamantylmethyl)-2,4-dioxo-5-phenyl-2,3,4,5-tetrahydro-1H-1,5-benzodiazepin-3yl]-N'-[4-(3-(ethoxycarbonyl)propyl-1-oxo)phenyl]urea] | 5.25 | < 5.0
O=CNc1cccc(NC(=O)NC2C(=O)N(CC34CC5CC(CC(C5)C3)C4)c3ccccc3N(c3ccccc3)C2=O)c1 (racemic) [Example 6, N-[1-(1-Adamantylmethyl)-2,4-dioxo-5-phenyl-2,3,4,5-tetrahydro-1H-1,5-benzodiazepin-3-yl]-N'-(3-formylaminophenyl)urea] | 0.955 | 5.95
O=C(Nc1cccc(C(=O)OCCN2CCOCC2)c1)NC1C(=O)N(CC23CC4CC(CC(C4)C2)C3)c2ccccc2N(c2ccccc2)C1=O (single isomer, unassigned; (+)) [Example 4, (+)N-[1-(1-Adamantylmethyl)-2,4-dioxo-5-phenyl-2,3,4,5-tetrahydro-1H-5-benzodiazepin-3-yl]-N'-[3-[2-(4-Morpholino)ethoxycarbonyl]phenyl]urea] | 0.562 | 6.47
CC(=O)Nc1cccc(NC(=O)NC2C(=O)N(CC34CC5CC(CC(C5)C3)C4)c3ccccc3N(c3ccccc3)C2=O)c1 (racemic) [Example 7, N-[1-(1-Adamantylmethyl)-2,4-dioxo-5-phenyl-2,3,4,5-tetrahydro-1H-1,5-benzodiazepin-3-yl]-N'-(3-acetamidophenyl)urea] | 1.32 | 5.82
O=C(Nc1cccc(CN2CCOCC2)c1)NC1C(=O)N(CC23CC4CC(CC(C4)C2)C3)c2ccccc2N(c2ccccc2)C1=O (single isomer, unassigned; (+)) [Example 1, (+)N-[1-(1-Adamantylmethyl)-2,4-dioxo-5-phenyl-2,3,4,5-tetrahydro-1H-1,5-benzodiazepin-3-yl]-N'-(3-(4-morpholinomethyl)phenyl]-urea] |  | 4.70
O=C(O)CCCOc1ccc(NC(=O)NC2C(=O)N(CC34CC5CC(CC(C5)C3)C4)c3ccccc3N(c3ccccc3)C2=O)cc1 (single isomer, unassigned; (+)) [Example 3, (+)N-[1-(1-Adamantylmethyl)-2,4-dioxo-5-phenyl-2,3,4,5-tetrahydro-1H-1,5benzodiazepin-3-yl]-N'-[4-(4-oxobutanoic acid)phenyl]urea] | 3.8 | < 5.0
O=C(Nc1cccc(NCC(O)CO)c1)NC1C(=O)N(CC23CC4CC(CC(C4)C2)C3)c2ccccc2N(c2ccccc2)C1=O (single isomer, unassigned; (+)) [Example 5, (+)N-[1-(1-Adamantylmethyl)-2,4-dioxo-5-phenyl-2,3,4,5-tetrahydro-1H-1,5-benzodiazepin-3-yl]N'-[3-(2,3-dihydroxypropylamino)phenyl]urea] | 0.676 | 5.13

— patent publication US5733867A, “1, 5-benzodiazepine derivatives” (Glaxo Wellcome SpA, priority 1993, dated 1998)
